Reference: patent US11234982B2, “Methods for treating ocular surface pain” (NOVARTIS AG, priority 2019, dated 2022)

Key:
Type in all cases: in vivo
[1] = First in human study plasma pharmacokinetics
Description: (§1) This example describes a first-in-human study of compound I conducted in healthy volunteers. A total of 54 subjects were administered to study medication. Part 1 of the first in human study administered single ascending doses of 0.15%, 1.5%, 2.5% w/v (1 drop) of compound I in an eye drop.
(§2) Part 2 tested multiple ascending doses (MAD) of compound I, administering (i) 1 drop of 0.15%, 1.5%, 2.5%, 4 times daily (every 6 hours) for 7 days or (ii) 1 drop of 2.5%, 8 times daily (every 3 hours) for 7 days (supra-therapeutic dose) as eye drops.
Accumulation of compound I at steady-state was minor (˜1.7-fold) following administration of 0.15%, 1.5% or 2.5% suspension 4 times daily and also minor (˜1.3-fold) following 2.5% 8 times daily for 7 days.

healthy volunteers [2] = test: First in human study Part 1: SAD, incidence of adverse events; details: N = 6
Description: as §1
(§3) Safety assessments: Safety assessments consisted of collecting all adverse events (AEs), serious adverse events (SAEs), including systemic and ocular adverse events, along with their severity and relationship to study drug. Systemic safety assessments included regular monitoring of hematology, blood chemistry and urinalysis performed at study center and regular assessments of physical examination, vital signs (systolic and diastolic blood pressure, pulse rate, and body temperature), ECG, pregnancy and assessments of fertility and hand immersion test at 49° C. during MAD part. Ocular safety assessments included early treatment diabetic retinopathy study (ETDRS) visual acuity, intraocular pressure, slit-lamp biomicroscopy, corneal staining and dilated fundus exam.
(§4) Inclusion Criteria: • Written informed consent was obtained before any assessment was performed. • Healthy male and female subjects aged 18 to 50 years (inclusive), and in good health as determined by past medical history, physical examination, vital signs, ECG, and laboratory tests at Screening. • At Screening, and Baseline, vital signs (systolic and diastolic blood pressure (BP) and pulse rate) were assessed in the sitting position after the subject had rested for at least 3 minutes and again after 3 minutes in the standing position. […] BMI=Body weight (kg)/[Height (m)]^2 • Subjects who were able to communicate well with the Investigator, to understand and comply with the requirements of the study. • For Part 3, subjects Baseline levels of eye sensitivity were to be in the range of 50 to 60 mm (inclusive) as measured by the Cochet-Bonnet esthesiometer.
(§5) History of any chronic eye disease other than refractive error, incipient cataract, strabismic amblyopia, or anisometropic amblyopia. Subjects with a history of acute eye disease (such as infection, corneal abrasion or allergy) within the past 6 months from Screening were eligible if the disease was not active. • Any currently active ocular condition that required use of topical eye drops. • Subjects using continuous positive airway pressure or other sleep apnea devices.

healthy volunteers [3] = test: First in human study Part 2: MAD, incidence of adverse events and MTD
Description: as §2, §3, §4, §5

[4] = MAD, 0.15% 4 times daily for 7 days, N = 6

## CC(C)c1nc2cc(O)ccc2c(=O)n1-c1ccc(C#N)cc1 [Compound I, 4-(7-hydroxy-2-isopropyl-4-oxo-4H-quinazolin-3-yl)-benzonitrile]
[1]; 0.15%, 1.5% or 2.5% suspension 4 times daily
  Accumulation at steady-state: ~1.7 fold
[1]; 2.5%, 8 times daily for 7 days
  Accumulation at steady-state: ~1.3 fold
[1]; dose from 0.15% to 2.5%
  Increase in systemic exposure with dose: less than dose-proportional increase
[1]; single and multiple topical ocular suspension doses 0.15%, 1.5%, 2.5%
  Absorption into systemic circulation (plasma PK profile): rapid absorption
Healthy volunteers [2]; 0.15% 1 drop
  AEs leading to of study: nE: 0
  AEs leading to of study: nS (%): 0 (0.0) nS (%)
  AEs of Mild severity: nE: 3
  AEs of Mild severity: nS (%): 1 (16.7) nS (%)
  AEs of Moderate severity: nE: 0
  AEs of Moderate severity: nS (%): 0 (0.0) nS (%)
  AEs, Subjects with AEs: nE (AE events): 3
  AEs, Subjects with AEs: nS (%) (subjects with at least one AE): 1 (16.7) nS (%)
  Serious AEs: nE: 0
  Serious AEs: nS (%): 0 (0.0) nS (%)
  Study drug-related AEs: nE: 3
  Study drug-related AEs: nS (%): 1 (16.7) nS (%)
  Study-drug related AEs leading to discontinuation of study: nE: 0
  Study-drug related AEs leading to discontinuation of study: nS (%): 0 (0.0) nS (%)
Healthy volunteers [2]; 1.5% 1 drop
  AEs leading to of study: nE: 0
  AEs leading to of study: nS (%): 0 (0.0) nS (%)
  AEs of Mild severity: nE: 3
  AEs of Mild severity: nS (%): 2 (33.3) nS (%)
  AEs of Moderate severity: nE: 0
  AEs of Moderate severity: nS (%): 0 (0.0) nS (%)
  AEs, Subjects with AEs: nE (AE events): 3
  AEs, Subjects with AEs: nS (%) (subjects with at least one AE): 2 (33.3) nS (%)
  Serious AEs: nE: 0
  Serious AEs: nS (%): 0 (0.0) nS (%)
  Study drug-related AEs: nE: 3
  Study drug-related AEs: nS (%): 2 (33.3) nS (%)
  Study-drug related AEs leading to discontinuation of study: nE: 0
  Study-drug related AEs leading to discontinuation of study: nS (%): 0 (0.0) nS (%)
Healthy volunteers [2]; 2.5% 1 drop
  AEs leading to of study: nE: 0
  AEs leading to of study: nS (%): 0 (0.0) nS (%)
  AEs of Mild severity: nE: 0
  AEs of Mild severity: nS (%): 0 (0.0) nS (%)
  AEs of Moderate severity: nE: 0
  AEs of Moderate severity: nS (%): 0 (0.0) nS (%)
  AEs, Subjects with AEs: nE (AE events): 0
  AEs, Subjects with AEs: nS (%) (subjects with at least one AE): 0 (0.0) nS (%)
  Serious AEs: nE: 0
  Serious AEs: nS (%): 0 (0.0) nS (%)
  Study drug-related AEs: nE: 0
  Study drug-related AEs: nS (%): 0 (0.0) nS (%)
  Study-drug related AEs leading to discontinuation of study: nE: 0
  Study-drug related AEs leading to discontinuation of study: nS (%): 0 (0.0) nS (%)
Healthy volunteers [3]; 2.5%, 8 times daily for 7 days
  Dose limiting adverse events: No dose limiting adverse events were identified
Healthy volunteers [3]; [4]
  AEs leading to discontinuation of: nE: 0
  AEs leading to discontinuation of: nS (%): 0 (0.0) nS (%)
  AEs of Mild severity: nE: 6
  AEs of Mild severity: nS (%): 3 (50.0) nS (%)
  AEs of Moderate: nE: 0
  AEs of Moderate: nS (%): 0 (0.0) nS (%)
  AEs, Subjects with AEs: nE (AE events): 6
